Measurements reported in paper PMC6234764, “First Insights Into Within Host Translocation of the Bacillus cereus Toxin Cereulide Using a Porcine Model” (Frontiers in Microbiology, 2018).
Read-outs that look alike come from different tables or passages of the source.

How the values were obtained:
[1] = Cereulide in organs and tissues, SIDA-MS; assay type: in vivo, pig; conditions: for tissue level at time at 48 h / tissue level at time at 168 h: pig; for tissue level at time at 168 h: 10 ug/kg
Method: A total of four experiments, each including four treated animals and one control pig, was performed to investigate the action of cereulide on piglets after oral intake of cereulide. Pigs were either challenged orally with a single dose (acute trials) or with daily over a period of 7 days (chronic trial) (see Table 1). One hour before cereulide toxin administration blood samples were taken by puncturing the anterior Vena cava and piglets were weighed for calculation of the cereulide concentration (t = 0 h). In the intoxication experiment with 150 μg kg^-1 blood samples were taken 68 h before the experiment to reduce the distress for the animals at the start day of the experiments. Blood-chemical, immunological, and histological analyses of selected organs as well as quantification of cereulide in organs, tissues, urine and feces were carried out as detailed below.
On body weight calculated amounts of cereulide, dissolved in ethanol, were mixed with milk (UHT milk; 3.5% fat), and fed to four piglets. Control piglets were fed with milk supplemented with similar ethanol concentrations as the experimental piglets. The experiment started after the uptake of the whole milk cereulide mixture. The milk was checked for bacterial contamination prior to the experiment.
(§1) After oral administration of cereulide, piglets were monitored for unusual behavior and examined physically with special respect on rectal body temperature as well as pulse and respiration rate, every 2–3 h. Blood samples were taken from the Vena cava cranialis. Urine and feces were collected during the whole experiment and stored at -80°C. After the experiment pigs were anaesthetized by intramuscular injection of a bolus of ketamine (10 mg kg^-1) and azaperone (1.3 mg kg^-1). When sedation was deep enough cerebrospinal fluid (liquor) was taken by lumbar puncture. Finally, pigs were euthanized by intracardial injection of T61®. Animals were then necropsied and parts of the following organs, tissues or body fluids were taken for SIDA-MS analysis: liver, lung, heart, kidney, brain, spleen, small and large intestine, lymph nodes, gastric as well as intestinal contents, skeletal muscle, and abdominal and subcutaneous fat. Samples of liver, lung, heart, kidney, brain, spleen, small, and large intestine were collected for histological analysis.
Collected blood samples, urine, feces, tissue and organs were freeze dried and stored at -80°C until analysis. Before extraction, liquid nitrogen was added to frozen samples and they were crushed to a powder using a mortar. Ten microgram ^13C6-cereulide (for organs and feces) or 5 μg ^13C6-cereulide (for urine and blood) was added and samples were incubated on a rocking table for 2 h. Samples were solved in ethanol (volume depending on weight 10–40 mL), incubated 14 h, and the supernatants were collected by centrifugation (RT, 8500 g, 10 min). For pre-purification the ethanolic extract was 1:5 diluted with water and applied onto the top of a methanol activated C18-SPE cartridge (6 mL; 1 g; Strata C18-E; Phenomenex, Aschaffenburg, Germany). The cartridge was washed with 6 mL water followed by methanol/water (4 mL; 70/30, v/v) and target compounds were eluted with ethanol (2.5 mL). Finally, samples were membrane filtrated (0.2 μm; PTFE membrane; Phenomenex, Aschaffenburg, Germany) and analyzed by means of LC-MS/MS as described previously ([Bauer et al., 2010]). In brief, LC-MS/MS analysis was performed using an Agilent 1200 HPLC-system connected to the API 4000QTrap LC-MS/MS (Applied Biosystems, Darmstadt, Germany) running in the positive electrospray ionization (ESI^+, +5500 V) mode. Zero grade air served as nebulizer gas (45 psi) and turbo gas (425°C) for solvent drying (55 psi), nitrogen was used as curtain (20 psi) and collision gas (8.7 × 10^-7 psi), respectively. Both quadrapoles were set at unit resolution. […]

piglets = assay: Histological examination of organs; assay type: in vivo, pig; conditions: pigs orally challenged with cereulide
Method: as §1

[2] = daily oral dose 10 μg kg^-1 for 7 days, SIDA-MS
[3] = daily oral dose 10 μg kg^-1 over 7 days
[4] = single oral dose 30 μg kg^-1, necropsy after 48 h, SIDA-MS
[5] = single oral dose 150 μg kg^-1, necropsy after 48 h, SIDA-MS

CC(C)C[C@H]1OC(=O)[C@H](C(C)C)NC(=O)[C@H](C(C)C)OC(=O)[C@@H](C)NC(=O)[C@@H](CC(C)C)OC(=O)[C@H](C(C)C)NC(=O)[C@H](C(C)C)OC(=O)[C@@H](C)NC(=O)[C@@H](CC(C)C)OC(=O)[C@H](C(C)C)NC(=O)[C@H](C(C)C)OC(=O)[C@@H](C)NC1=O [cereulide]
Average concentration in content of large intestine, acute 150 μg kg^-1 versus chronic 10 μg kg^-1 daily ([1]; acute high dose over chronic trial): about 15 fold | Amounts of cereulide in muscle, chronic trial versus acute high dose ([1]; chronic 10 μg kg^-1 daily exceeds acute 150 μg kg^-1): threefold | Cereulide concentration in content of large intestine, range [1, 2]: 2.04 to 6.78 ng/g | Cereulide concentration in kidney, range [1, 2]: 0.14 to 0.37 ng/g | Cereulide concentration in large intestine, range [1, 2]: 1.16 to 5.05 ng/g | Cereulide concentration in liver, range [1, 2]: 0.06 to 0.24 ng/g | Cereulide concentration in lymph nodes, range [1, 2]: 0.01 to 0.14 ng/g | Cereulide concentration in muscle, range [1, 2]: 0 to 2.23 ng/g | Cereulide concentration in spleen, range [1, 2]: 0.10 to 0.21 ng/g | Cereulide concentration in subcutaneous fat, range [1, 2]: 0 to 0.08 ng/g | Cereulide in large intestine and large intestinal contents, maximum [1, 3]: up to 6.8 ng g^-1 | Detectability of cereulide in the small intestine [1, 3]: not detectable | Passage of the blood-brain-barrier (BBB) ([1]; detection of cereulide in brain samples after oral challenge): can cross the BBB | tissue level at time at 48 h ([1]; abdominal fat, 150 ug/kg, single oral dose 150 μg kg^-1, necropsy after 48 h, SIDA-MS, read-out: Cereulide concentration in abdominal fat, average): 7.88 ± 4.17 ng/g | tissue level at time at 48 h ([1]; brain, 150 ug/kg, single oral dose 150 μg kg^-1, necropsy after 48 h, SIDA-MS, read-out: Cereulide concentration in brain, average): 0.73 ± 0.49 ng/g | tissue level at time at 168 h ([1]; content of large intestine, daily oral dose 10 μg kg^-1 for 7 days, SIDA-MS, read-out: Cereulide concentration in content of large intestine, average): 4.41 ± 2.37 ng/g | tissue level at time at 48 h ([1]; content of large intestine, 30 ug/kg, single oral dose 30 μg kg^-1, necropsy after 48 h, SIDA-MS, read-out: Cereulide concentration in content of large intestine, average): 0.07 ± 0.03 ng/g | tissue level at time at 48 h ([1]; content of large intestine, 150 ug/kg, single oral dose 150 μg kg^-1, necropsy after 48 h, SIDA-MS, read-out: Cereulide concentration in content of large intestine, average): 67.9 ± 50.8 ng/g | tissue level at time at 48 h ([1]; content of small intestine, 150 ug/kg, single oral dose 150 μg kg^-1, necropsy after 48 h, SIDA-MS, read-out: Cereulide concentration in content of small intestine, average): 0.68 ± 0.53 ng/g | tissue level at time at 168 h ([1]; kidney, daily oral dose 10 μg kg^-1 for 7 days, SIDA-MS, read-out: Cereulide concentration in kidney, average): 0.25 ± 0.12 ng/g | tissue level at time at 48 h ([1]; kidney, 150 ug/kg, single oral dose 150 μg kg^-1, necropsy after 48 h, SIDA-MS, read-out: Cereulide concentration in kidney, average): 0.21 ± 0.21 ng/g | tissue level at time at 168 h ([1]; large intestine, daily oral dose 10 μg kg^-1 for 7 days, SIDA-MS, read-out: Cereulide concentration in large intestine, average): 3.11 ± 1.95 ng/g | tissue level at time at 48 h ([1]; large intestine, 30 ug/kg, single oral dose 30 μg kg^-1, necropsy after 48 h, SIDA-MS, read-out: Cereulide concentration in large intestine, average): 0.07 ± 0.06 ng/g | tissue level at time at 48 h ([1]; large intestine, 150 ug/kg, single oral dose 150 μg kg^-1, necropsy after 48 h, SIDA-MS, read-out: Cereulide concentration in large intestine, average): 30.5 ± 14.3 ng/g | tissue level at time at 168 h ([1]; liver, daily oral dose 10 μg kg^-1 for 7 days, SIDA-MS, read-out: Cereulide concentration in liver, average): 0.14 ± 0.08 ng/g | tissue level at time at 48 h ([1]; liver, 150 ug/kg, single oral dose 150 μg kg^-1, necropsy after 48 h, SIDA-MS, read-out: Cereulide concentration in liver, average): 0.37 ± 0.07 ng/g | tissue level at time at 168 h ([1]; lymph nodes, daily oral dose 10 μg kg^-1 for 7 days, SIDA-MS, read-out: Cereulide concentration in lymph nodes, average): 0.07 ± 0.07 ng/g | tissue level at time at 48 h ([1]; lymph nodes, 150 ug/kg, single oral dose 150 μg kg^-1, necropsy after 48 h, SIDA-MS, read-out: Cereulide concentration in lymph nodes, average): 2.82 ± 1.71 ng/g | tissue level at time at 168 h ([1]; muscle, daily oral dose 10 μg kg^-1 for 7 days, SIDA-MS, read-out: Cereulide concentration in muscle, average): 1.12 ± 1.12 ng/g | tissue level at time at 48 h ([1]; muscle, 150 ug/kg, single oral dose 150 μg kg^-1, necropsy after 48 h, SIDA-MS, read-out: Cereulide concentration in muscle, average): 0.39 ± 0.32 ng/g | tissue level at time at 48 h ([1]; small intestine, 150 ug/kg, single oral dose 150 μg kg^-1, necropsy after 48 h, SIDA-MS, read-out: Cereulide concentration in small intestine, average): 1.34 ± 0.88 ng/g | tissue level at time at 168 h ([1]; spleen, daily oral dose 10 μg kg^-1 for 7 days, SIDA-MS, read-out: Cereulide concentration in spleen, average): 0.15 ± 0.06 ng/g | tissue level at time at 48 h ([1]; spleen, 150 ug/kg, single oral dose 150 μg kg^-1, necropsy after 48 h, SIDA-MS, read-out: Cereulide concentration in spleen, average): 2.26 ± 1.75 ng/g | tissue level at time at 48 h ([1]; stomach, 150 ug/kg, single oral dose 150 μg kg^-1, necropsy after 48 h, SIDA-MS, read-out: Cereulide concentration in stomach, average): 2 ± 3.2 ng/g | tissue level at time at 168 h ([1]; subcutaneous fat, daily oral dose 10 μg kg^-1 for 7 days, SIDA-MS, read-out: Cereulide concentration in subcutaneous fat, average): 0.04 ± 0.04 ng/g | tissue level at time at 48 h ([1]; subcutaneous fat, 150 ug/kg, single oral dose 150 μg kg^-1, necropsy after 48 h, SIDA-MS, read-out: Cereulide concentration in subcutaneous fat, average): 0.74 ± 0.51 ng/g | Cereulide concentration in content of large intestine, range [1, 4]: 0 to 0.09 ng/g | Cereulide concentration in large intestine, range [1, 4]: 0 to 0.13 ng/g | Cereulide in content of the large intestine, maximum ([1]; single oral dose 150 μg kg^-1): up to 140 ng g^-1 | Cereulide in content of the small intestine, maximum ([1]; single oral dose 150 μg kg^-1): ≤ 1 ng/g | Cereulide in the brain, animal with highest blood concentration ([1]; single oral dose 150 μg kg^-1): 1.4 ng cereulide g^-1 | Cereulide in fat tissue, one animal ([1]; single oral dose 150 μg kg^-1, animal with highest blood concentration): 2 ng cereulide g^-1 fat tissue | Cereulide concentration in abdominal fat, range [1, 5]: 2.17 to 12.02 ng/g | Cereulide concentration in brain, range [1, 5]: 0.15 to 1.41 ng/g | Cereulide concentration in content of large intestine, range [1, 5]: 5.84 to 140.99 ng/g | Cereulide concentration in content of small intestine, range [1, 5]: 0 to 1.06 ng/g | Cereulide concentration in kidney, range [1, 5]: 0 to 0.43 ng/g | Cereulide concentration in large intestine, range [1, 5]: 7.14 to 45.75 ng/g | Cereulide concentration in liver, range [1, 5]: 0.25 to 0.41 ng/g | Cereulide concentration in lymph nodes, range [1, 5]: 0 to 4.50 ng/g | Cereulide concentration in muscle, range [1, 5]: 0 to 0.76 ng/g | Cereulide concentration in small intestine, range [1, 5]: 0.34 to 2.49 ng/g | Cereulide concentration in spleen, range [1, 5]: 1.15 to 5.29 ng/g | Cereulide concentration in stomach, range [1, 5]: 0.11 to 7.54 ng/g | Cereulide concentration in subcutaneous fat, range [1, 5]: 0.35 to 1.37 ng/g | Cereulide in fat tissues, maximum ([1]; single oral dose 150 μg kg^-1, two out of four animals): up to 12 ng cereulide g^-1 | Histological examinations of liver, lung, heart, kidneys, brain, spleen and gastrointestinal tract (piglets): did not reveal any notable or specific pathological changes
